From ChEMBL document CHEMBL3885861, “Open TG-GATES”

Species on record: Rattus norvegicus
Assay: Open TG-GATES - Regimen: Daily Repeat
Type: toxicity, organism-based, Sprague-Dawley
Set-up: regimen Daily Repeat, gender Male, age 6 weeks
Conditions: in vivo, po, 300 mg/kg, route gavage, dose level High; for APTT / Bas / Eos / Fbg / Hb / Ht / Lym / MCH / MCHC / MCV / Mono / Neu / PT / Plat / RBC / Ret / WBC: tissue Blood; for KIDNEY_L / KIDNEY_R / KIDNEY_TOTAL: tissue Kidney; for LIVER: tissue Liver; for A/G / ALP / ALT / AST / BUN / CRE / Ca / Cl / DBIL / GLC / IP / K / LDH / Na / PL / RALB / TBIL / TC / TG / TP / gamma-GTP: tissue Plasma

In the case of `Clc1c(Cl)c(Cl)c(Cl)c(Cl)c1Cl` [PERCHLOROBENZENE], the TERMINAL_BW (72 h, time 3 day) is reported as 226 g, the APTT (72 h, time 3 day) is reported as 15.9 s and the Bas (72 h, time 3 day) is reported as 0%. It also gave an Eos (72 h, time 3 day) of 1.2%, a Fbg (72 h, time 3 day) of 225.4 mg/dL and a Hb (72 h, time 3 day) of 14.3 g/dL. For the same molecule, the Ht (72 h, time 3 day) was 42.9%, the Lym (72 h, time 3 day) was 71.2% and the MCH (72 h, time 3 day) was 21.6 pg. For the same molecule, the MCHC (72 h, time 3 day) was 33.2%, the MCV (72 h, time 3 day) was 65.2 fL and the Mono (72 h, time 3 day) was 10.6%. For the same molecule, the Neu (72 h, time 3 day) was 16.8%, the PT (72 h, time 3 day) was 11 s and the Plat (72 h, time 3 day) was 98.4 x10_4/uL. It also gave an RBC (72 h, time 3 day) of 658.8 x10_4/ul, a Ret (72 h, time 3 day) of 8% and a WBC (72 h, time 3 day) of 106.3 x10_2/uL. The KIDNEY_L (72 h, time 3 day) was 1 g, the KIDNEY_R (72 h, time 3 day) was 1 g and the KIDNEY_TOTAL (72 h, time 3 day) was 2 g. It also gave an LIVER (72 h, time 3 day) of 13.7 g, an A/G (72 h, time 3 day) of 2.1 and an ALP (72 h, time 3 day) of 720.6 IU/L. For the same molecule, the ALT (72 h, time 3 day) was 41 IU/L, the AST (72 h, time 3 day) was 64.8 IU/L and the BUN (72 h, time 3 day) was 15 mg/dL. It also gave a CRE (72 h, time 3 day) of 0.6 mg/dL, a Ca (72 h, time 3 day) of 10.7 mg/dL and a Cl (72 h, time 3 day) of 105.8 meq/L. For the same molecule, the DBIL (72 h, time 3 day) was 0.002 mg/dL, the GLC (72 h, time 3 day) was 184 mg/dL and the IP (72 h, time 3 day) was 8.3 mg/dL. The K (72 h, time 3 day) was 5.1 meq/L, the LDH (72 h, time 3 day) was 186 IU/L and the Na (72 h, time 3 day) was 138.8 meq/L. The PL (72 h, time 3 day) was 165.8 mg/dL, the RALB (72 h, time 3 day) was 3.9 g/dL and the TBIL (72 h, time 3 day) was 0.5 mg/dL. For the same molecule, the TC (72 h, time 3 day) was 92.2 mg/dL, the TG (72 h, time 3 day) was 160.4 mg/dL and the TP (72 h, time 3 day) was 5.7 g/dL. The gamma-GTP (72 h, time 3 day) was 1.4 IU/L, the TERMINAL_BW ([…], time 7 day) was 262.7 g and the TERMINAL_BW ([…], time 14 day) was 310.5 g. It also gave a TERMINAL_BW ([…], time 28 day) of 358.3 g, an APTT ([…], time 7 day) of 16.1 s and a Bas ([…], time 7 day) of 0%. For the same molecule, the Eos ([…], time 7 day) was 1%, the Fbg ([…], time 7 day) was 255.6 mg/dL and the Hb ([…], time 7 day) was 14.2 g/dL. The Ht ([…], time 7 day) was 43.1%, the Lym ([…], time 7 day) was 71.2% and the MCH ([…], time 7 day) was 21.5 pg. For the same molecule, the MCHC ([…], time 7 day) was 33%, the MCV ([…], time 7 day) was 65 fL and the Mono ([…], time 7 day) was 9.4%. For the same molecule, the Neu ([…], time 7 day) was 18.4%, the PT ([…], time 7 day) was 11.2 s and the Plat ([…], time 7 day) was 115 x10_4/uL. The RBC ([…], time 7 day) was 662 x10_4/ul, the Ret ([…], time 7 day) was 6.3% and the WBC ([…], time 7 day) was 117.1 x10_2/uL. It also gave an APTT ([…], time 14 day) of 20.8 s, a Bas ([…], time 14 day) of 0% and an Eos ([…], time 14 day) of 1.2%. The Fbg ([…], time 14 day) was 280.2 mg/dL, the Hb ([…], time 14 day) was 13.9 g/dL and the Ht ([…], time 14 day) was 41.6%. It also gave a Lym ([…], time 14 day) of 67.8%, an MCH ([…], time 14 day) of 20.7 pg and an MCHC ([…], time 14 day) of 33.3%. It also gave an MCV ([…], time 14 day) of 62.1 fL, a Mono ([…], time 14 day) of 14.8% and a Neu ([…], time 14 day) of 16.4%. The PT ([…], time 14 day) was 12.7 s, the Plat ([…], time 14 day) was 120.7 x10_4/uL and the RBC ([…], time 14 day) was 669.4 x10_4/ul. The Ret ([…], time 14 day) was 4.2%, the WBC ([…], time 14 day) was 140.9 x10_2/uL and the APTT ([…], time 28 day) was 22.1 s. The Bas ([…], time 28 day) was 0%, the Eos ([…], time 28 day) was 1.8% and the Fbg ([…], time 28 day) was 305.4 mg/dL. For the same molecule, the Hb ([…], time 28 day) was 15.1 g/dL, the Ht ([…], time 28 day) was 45.5% and the Lym ([…], time 28 day) was 73.2%. It also gave an MCH ([…], time 28 day) of 19.4 pg, an MCHC ([…], time 28 day) of 33.2% and an MCV ([…], time 28 day) of 58.4 fL. It also gave a Mono ([…], time 28 day) of 11.8%, a Neu ([…], time 28 day) of 13.4% and a PT ([…], time 28 day) of 14 s. For the same molecule, the Plat ([…], time 28 day) was 92 x10_4/uL, the RBC ([…], time 28 day) was 779.6 x10_4/ul and the Ret ([…], time 28 day) was 2.9%. It also gave a WBC ([…], time 28 day) of 161.2 x10_2/uL, a KIDNEY_L ([…], time 7 day) of 1.2 g and a KIDNEY_R ([…], time 7 day) of 1.3 g. It also gave a KIDNEY_TOTAL ([…], time 7 day) of 2.5 g, a KIDNEY_L ([…], time 14 day) of 1.4 g and a KIDNEY_R ([…], time 14 day) of 1.3 g. It also gave a KIDNEY_TOTAL ([…], time 14 day) of 2.7 g, a KIDNEY_L ([…], time 28 day) of 1.6 g and a KIDNEY_R ([…], time 28 day) of 1.6 g. It also gave a KIDNEY_TOTAL ([…], time 28 day) of 3.3 g, an LIVER ([…], time 7 day) of 18.4 g and an LIVER ([…], time 14 day) of 24.3 g. It also gave an LIVER ([…], time 28 day) of 31 g, an A/G ([…], time 7 day) of 2.1 and an ALP ([…], time 7 day) of 604.6 IU/L. It also gave an ALT ([…], time 7 day) of 35.6 IU/L, an AST ([…], time 7 day) of 55.4 IU/L and a BUN ([…], time 7 day) of 15.8 mg/dL. It also gave a CRE ([…], time 7 day) of 0.7 mg/dL, a Ca ([…], time 7 day) of 10.9 mg/dL and a Cl ([…], time 7 day) of 104.4 meq/L. For the same molecule, the DBIL ([…], time 7 day) was 0.01 mg/dL, the GLC ([…], time 7 day) was 173.4 mg/dL and the IP ([…], time 7 day) was 8.9 mg/dL. For the same molecule, the K ([…], time 7 day) was 4.7 meq/L, the LDH ([…], time 7 day) was 178.4 IU/L and the Na ([…], time 7 day) was 138.8 meq/L. For the same molecule, the PL ([…], time 7 day) was 205.8 mg/dL, the RALB ([…], time 7 day) was 4.2 g/dL and the TBIL ([…], time 7 day) was 0.4 mg/dL. The TC ([…], time 7 day) was 124.6 mg/dL, the TG ([…], time 7 day) was 147.2 mg/dL and the TP ([…], time 7 day) was 6.2 g/dL. The gamma-GTP ([…], time 7 day) was 2.6 IU/L, the A/G ([…], time 14 day) was 2 and the ALP ([…], time 14 day) was 379.8 IU/L. For the same molecule, the ALT ([…], time 14 day) was 32.8 IU/L, the AST ([…], time 14 day) was 51.6 IU/L and the BUN ([…], time 14 day) was 17.2 mg/dL. For the same molecule, the CRE ([…], time 14 day) was 0.6 mg/dL, the Ca ([…], time 14 day) was 10.6 mg/dL and the Cl ([…], time 14 day) was 107.4 meq/L. It also gave a DBIL ([…], time 14 day) of 0.01 mg/dL, a GLC ([…], time 14 day) of 165.6 mg/dL and an IP ([…], time 14 day) of 8 mg/dL. The K ([…], time 14 day) was 4.6 meq/L, the LDH ([…], time 14 day) was 199.6 IU/L and the Na ([…], time 14 day) was 140.4 meq/L. The PL ([…], time 14 day) was 199.6 mg/dL, the RALB ([…], time 14 day) was 4.4 g/dL and the TBIL ([…], time 14 day) was 0.4 mg/dL. It also gave a TC ([…], time 14 day) of 124 mg/dL, a TG ([…], time 14 day) of 144.4 mg/dL and a TP ([…], time 14 day) of 6.8 g/dL. It also gave a gamma-GTP ([…], time 14 day) of 4 IU/L, an A/G ([…], time 28 day) of 1.8 and an ALP ([…], time 28 day) of 213.2 IU/L. The ALT ([…], time 28 day) was 41.6 IU/L, the AST ([…], time 28 day) was 43.8 IU/L and the BUN ([…], time 28 day) was 19.2 mg/dL. For the same molecule, the CRE ([…], time 28 day) was 0.7 mg/dL, the Ca ([…], time 28 day) was 10.8 mg/dL and the Cl ([…], time 28 day) was 105.4 meq/L. For the same molecule, the DBIL ([…], time 28 day) was 0.038 mg/dL, the GLC ([…], time 28 day) was 151 mg/dL and the IP ([…], time 28 day) was 8.4 mg/dL. The K ([…], time 28 day) was 5 meq/L, the LDH ([…], time 28 day) was 163.2 IU/L and the Na ([…], time 28 day) was 143 meq/L. It also gave a PL ([…], time 28 day) of 175 mg/dL, an RALB ([…], time 28 day) of 4.7 g/dL and a TBIL ([…], time 28 day) of 0.3 mg/dL. For the same molecule, the TC ([…], time 28 day) was 107.6 mg/dL, the TG ([…], time 28 day) was 174 mg/dL and the TP ([…], time 28 day) was 7.3 g/dL. For the same molecule, the gamma-GTP ([…], time 28 day) was 7.8 IU/L.
